Laboratory results as given in patent publication US8530489B2 (Vertex Pharmaceuticals Incorporated, priority 2006, dated 2013).

biological target: PLK1 (Homo sapiens, UniProt P53350); test: PLK1 Inhibition Assay I (radioactive-phosphate incorporation); assay type: biochemical; details: Ki(app); PLK1 Inhibition Assay I or II (table does not say which)
Method: The compounds of the present invention are evaluated as inhibitors of human PLK kinase using the following assays.
Compounds were screened for their ability to inhibit PLK1 using a radioactive-phosphate incorporation assay. Assays were carried out in a mixture of 25 mM HEPES (pH 7.5), 10 mM MgCl2, and 1 mM DTT. Final substrate concentrations were 350 μM [γ-33P]ATP (136 mCi 33P ATP/mmol ATP, Amersham Pharmacia Biotech/Sigma Chemicals) and 450 μM peptide (KKKISDELMDATFADQEAK) [SEQ. ID:1]. Assays were carried out at 25° C. in the presence of 2 nM PLK1. An assay stock buffer solution was prepared containing all of the reagents listed above, with the exception of ATP and the test compound of interest. 30 μL of the stock solution was placed in a 96 well plate followed by addition of 2 μL of DMSO stock containing serial dilutions of the test compound (typically starting from a final concentration of 10 μM with 2-fold serial dilutions) in duplicate (final DMSO concentration 5%). The plate was pre-incubated for 10 minutes at 25° C. and the reaction initiated by addition of 8 μL [γ-33P]ATP (final concentration 350 μM).
The reaction was stopped after 240 minutes by the addition of 100 μL 0.14M phosphoric acid. A multiscreen phosphocellulose filter 96-well plate (Millipore, Cat No. MAPHN0B50) was pretreated with 100 μL 0.1 M phosphoric acid prior to the addition of 125 μL of the stopped assay mixture. The plate was washed with 4×200 μL 0.1 M phosphoric acid. After drying, 100 μL Optiphase ‘SuperMix’ liquid scintillation cocktail (Perkin Elmer) was added to the well prior to scintillation counting (1450 Microbeta Liquid Scintillation Counter, Wallac).
After removing mean background values for all of the data points, Ki(app) data were calculated from non-linear regression analysis of the initial rate data using the Prism software package (GraphPad Prism version 3.0cx for Macintosh, GraphPad Software, San Diego Calif., USA).

Sequence of PLK1 (P53350 whole entry): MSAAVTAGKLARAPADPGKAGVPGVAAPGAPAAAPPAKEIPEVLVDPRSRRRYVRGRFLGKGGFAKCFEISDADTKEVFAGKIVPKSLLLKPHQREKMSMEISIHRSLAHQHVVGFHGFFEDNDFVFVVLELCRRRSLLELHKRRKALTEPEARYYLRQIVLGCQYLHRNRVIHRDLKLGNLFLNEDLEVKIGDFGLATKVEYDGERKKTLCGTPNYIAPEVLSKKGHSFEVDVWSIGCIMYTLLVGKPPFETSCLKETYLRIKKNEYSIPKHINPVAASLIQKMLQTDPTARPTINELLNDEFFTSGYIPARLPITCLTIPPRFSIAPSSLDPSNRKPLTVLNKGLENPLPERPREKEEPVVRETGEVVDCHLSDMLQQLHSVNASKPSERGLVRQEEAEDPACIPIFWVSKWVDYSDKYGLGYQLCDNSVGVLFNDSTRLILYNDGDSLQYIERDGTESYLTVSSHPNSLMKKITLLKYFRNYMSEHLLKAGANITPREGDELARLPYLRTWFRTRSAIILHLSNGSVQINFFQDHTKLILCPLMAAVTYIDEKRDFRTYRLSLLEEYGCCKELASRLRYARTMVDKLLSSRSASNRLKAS

| Compound | Ki |
| --- | --- |
| N#Cc1cnc(NCc2ccc(O)cc2)nc1-c1c[nH]c2ncc(C(F)(F)F)cc12 [Compound I-90, 4-(5-(1,1-Trifluoromethyl)-1H-pyrrolo[2,3-b]pyridin-3-yl)-2-(4-hydroxybenzylamino)pyrimidine-5-carbonitrile] | 3 to 40 nM |
| N#Cc1cnc(Sc2cccc(Br)c2)nc1-c1c[nH]c2ncc(C(F)(F)F)cc12 [II-4, 2-(3-bromophenylthio)-4-(5-(trifluoromethyl)-1H-pyrrolo[2,3-b]pyridin-3-yl)pyrimidine-5-carbonitrile] | > 40 nM |
| CNc1ccc(C(C)Nc2ncc(C#N)c(-c3c[nH]c4ncc(C(F)(F)F)cc34)n2)cn1 (stereo not drawn) [Compound I-151, 2-(1-(6-(methylamino)pyridin-3-yl)ethylamino)-4-(5-(trifluoromethyl)-1H-pyrrolo[2,3-b]pyridin-3-yl)pyrimidine-5-carbonitrile] | < 3 nM |
| C[C@@H](Nc1ncc(C#N)c(-c2c[nH]c3ncc(C(F)(F)F)cc23)n1)c1ccc(NC2CCN(C)CC2)nc1 [Compound I-297, 2-((R)-1-(6-(1-methylpiperidin-4-ylamino)pyridin-3-yl)ethylamino)-4-(5-(trifluoromethyl)-1H-pyrrolo[2,3-b]pyridin-3-yl)pyrimidine-5-carbonitrile] | < 3 nM |
| COCCC(=O)N1CCC(C(C)Nc2ncc(C#N)c(-c3c[nH]c4ncc(C(F)(F)F)cc34)n2)CC1 (stereo not drawn) [Compound I-184, 2-(1-(1-(3-methoxypropanoyl)piperidin-4-yl)ethylamino)-4-(5-(trifluoromethyl)-1H-pyrrolo[2,3-b]pyridin-3-yl)pyrimidine-5-carbonitrile] | < 3 nM |
| CCC(Nc1ncc(C#N)c(-c2c[nH]c3ncc(C(F)(F)F)cc23)n1)C1CCN(CC#N)CC1 (stereo not drawn) [Compound I-173, 2-(1-(1-(cyanomethyl)piperidin-4-yl)propylamino)-4-(5-(trifluoromethyl)-1H-pyrrolo[2,3-b]pyridin-3-yl)pyrimidine-5-carbonitrile] | < 3 nM |
| N#Cc1cnc(Sc2ccccc2Cl)nc1-c1c[nH]c2ncc(C(F)(F)F)cc12 [II-5, 2-(2-chlorophenylthio)-4-(5-(trifluoromethyl)-1H-pyrrolo[2,3-b]pyridin-3-yl)pyrimidine-5-carbonitrile] | > 40 nM |
| CCS(=O)(=O)N1CCC(C(C)Nc2ncc(C#N)c(-c3c[nH]c4ncc(C(F)(F)F)cc34)n2)CC1 (stereo not drawn) [Compound I-153, 2-(1-(1-(ethylsulfonyl)piperidin-4-yl)ethylamino)-4-(5-(trifluoromethyl)-1H-pyrrolo[2,3-b]pyridin-3-yl)pyrimidine-5-carbonitrile] | < 3 nM |
| CC(=O)N[C@H]1CC[C@H]([C@@H](C)Nc2ncc(C#N)c(-c3c[nH]c4ncc(C(F)(F)F)cc34)n2)CC1 [Compound I-208, N-((1R,4r)-4-((1R)-1-(5-cyano-4-(5-(trifluoromethyl)-1H-pyrrolo[2,3-b]pyridin-3-yl)pyrimidin-2-ylamino)ethyl)cyclohexyl)acetamide] | < 3 nM |
| C[C@H](Nc1ncc(C#N)c(-c2c[nH]c3ncc(Cl)cc23)n1)C(=O)NCC(F)(F)F [IA-6, (2S)-2-(4-(5-chloro-1H-pyrrolo{2,3-b]pyridin-3-yl)-5-cyanopyrimidin-2-ylamino)-N-(2,2,2-trifluoroethyl)propanamide] | > 40 nM |
| CC(C)[C@H](CO)Nc1ncc(C#N)c(-c2c[nH]c3ncc(C(F)(F)F)cc23)n1 [Compound I-47, 2-((R)-1-hydroxy-3-methylbutan-2-ylamino)-4-(5-(trifluoromethyl)-1H-pyrrolo[2,3-b]pyridin-3-yl)pyrimidine-5-carbonitrile] | < 3 nM |
| N#Cc1cnc(NCc2ccc3c(c2)CCO3)nc1-c1c[nH]c2ncc(C(F)(F)F)cc12 [Compound I-62, 2-((2,3-dihydrobenzofuran-5-yl)methylamino)-4-(5-(trifluoromethyl)-1H-pyrrolo[2,3-b]pyridin-3-yl)pyrimidine-5-carbonitrile] | 3 to 40 nM |
